Measurements: patent US6610846B1, “Heteroaromatic glucokinase activators” (Hoffman-La Roche Inc., priority 1999, dated 2003)

| Structure (SMILES) | melting point [°C] |
| --- | --- |
| CS(=O)(=O)c1ccc(C(CC2CCCC2)C(=O)Nc2ccccn2)cc1S(C)(=O)=O (stereo not drawn) | 107 to 110 |
| O=C(Nc1ncc(CO)s1)C(CC1CCCC1)c1ccc(Cl)c(Cl)c1 (stereo not drawn) [Example 15, 3-Cyclopentyl-2-(3,4-dichlorophenyl)-N-(5-hydroxymethyl-thiazol-2-yl)-propionamide] | 128 to 130 |
| O=C(Nc1nc(CCO)cs1)C(CC1CCCC1)c1ccc(Cl)c(Cl)c1 (stereo not drawn) [Example 16, 3-Cyclopentyl-2-(3,4-dichlorophenyl)-N-[4-(2-hydroxyethyl)-thiazol-2-yl]-propionamide] | 85 to 86 |
| O=C(Nc1nc(CO)cs1)C(CC1CCCC1)c1ccc(Cl)c(Cl)c1 (stereo not drawn) [Example 17, 3-Cyclopentyl-2-(3,4-dichlorophenyl)-N-(4-hydroxymethyl-thiazol-2-yl)-propionamide] | 88 to 90 |
| O=C(O)Cc1csc(NC(=O)C(CC2CCCC2)c2ccc(Cl)c(Cl)c2)n1 (stereo not drawn) [Example 18, {2-[3-Cyclopentyl-2-(3,4-dichlorophenyl)-propionylamino]-thiazol-4-yl}-acetic acid] | 100 to 102 |
| COC(=O)c1csc(NC(=O)C(CC2CCCC2)c2cccc(Cl)c2)n1 (stereo not drawn) [Example 30, 2-[2-(3-Chloro-phenyl)-3-cyclopentyl-propionylamino]-thiazole-4-carboxylic acid methyl ester] | 95 to 98 |
| COC(=O)c1csc(NC(=O)C(CC2CCCC2)c2ccc(Cl)cc2)n1 (stereo not drawn) [Example 32, 2-[2-(4-Chloro-phenyl)-3-cyclopentyl-propionylamino]-thiazole-4-carboxylic acid methyl ester] | 156 to 157 |
| CS(=O)(=O)c1ccc(C(CC2CCCC2)C(=O)Nc2nc(CO)cs2)cc1 (stereo not drawn) [Example 35, 3-Cyclopentyl-N-(4-hydroxymethyl-thiazol-2-yl)-2-(4-methanesulfonyl-phenyl)-propionamide] | 124 to 126 |
| CS(=O)(=O)c1ccc(C(CC2CCCC2)C(=O)Nc2nc(CCO)cs2)cc1 (stereo not drawn) [Example 36, 3-Cyclopentyl-N-[4-(2-hydroxyethyl)-thiazol-2-yl]-2-(4-methanesulfonyl-phenyl)-propionamide] | 84 to 87 |
| O=C(Nc1ccccn1)C(CC1CCCC1)c1ccc([N+](=O)[O-])cc1 (stereo not drawn) [Example 39(A), 3-Cyclopentyl-2-(4-nitro-phenyl)-N-pyridin-2-yl-propionamide] | 152 to 154 |
| CSc1ccc(C(CC2CCCC2)C(=O)Nc2ccccn2)cc1 (stereo not drawn) [Example 40, 3-Cyclopentyl-2-(4-methylsulfanyl-phenyl)-N-pyridin-2-yl-propionamide] | 127 to 128 |
| O=C(Nc1ccccn1)C(CC1CCCC1)c1ccc(SC(F)(F)F)cc1 (stereo not drawn) [Example 41, 3-Cyclopentyl-N-pyridin-2-yl-2-(4-trifluoromethylsulfanyl-phenyl)-propionamide] | 101 to 102 |
| CS(=O)(=O)c1ccc(C(CC2CCCC2)C(=O)Nc2ccccn2)cc1 (stereo not drawn) [Example 42, 3-Cyclopentyl-2-(4-methanesulfonyl-phenyl)-N-pyridin-2-yl-propionamide] | 172 to 173 |
| O=C(O)c1ccc(NC(=O)C(CC2CCCC2)c2ccc(Cl)cc2)nc1 (stereo not drawn) [Example 47, 6-[2-(4-Chloro-phenyl)-3-cyclopentyl-propionylamino]-nicotinic acid] | 206 to 208 |
| CS(=O)(=O)c1ccc(C(CC2CCCC2)C(=O)Nc2ccc(C(=O)O)cn2)cc1 (stereo not drawn) [Example 48, 6-[3-Cyclopentyl-2-(4-methanesulfonyl-phenyl)-propionylamino]-nicotinic acid] | 191 to 193 |
| O=C(Nc1ccc(CO)cn1)C(CC1CCCC1)c1ccc(Cl)cc1 (stereo not drawn) [Example 50, 2-(4-Chloro-phenyl)-3-cyclopentyl-N-(5-hydroxymethyl-pyridin-2-yl)-propionamide] | 60 to 62 |
| O=C(Nc1ccc(O)cn1)C(CC1CCCC1)c1ccc(Cl)c(Cl)c1 (stereo not drawn) [Example 51, 3-Cyclopentyl-2-(3,4-dichloro-phenyl)-N-(5-hydroxy-pyridin-2-yl)-propionamide] | 79 to 81 |
| CS(=O)(=O)c1ccc(C(CC2CCCC2)C(=O)Nc2ccc(CO)cn2)cc1 (stereo not drawn) [Example 52, 3-Cyclopentyl-N-(5-hydroxymethyl-pyridin-2-yl)-2-(4-methanesulfonyl-phenyl)-propionamide] | 74 to 77 |
| Cc1ccc(NC(=O)C(CC2CCCC2)c2ccc(S(C)(=O)=O)cc2)nc1 (stereo not drawn) [Example 53(A), 3-Cyclopentyl-2-(4-methanesulfonyl-phenyl)-N-(5-methyl-pyridin-2-yl)-propionamide] | 184 to 185 |
| Cc1cc(NC(=O)C(CC2CCCC2)c2ccc(Cl)c(Cl)c2)no1 (stereo not drawn) [Example 56, 3-Cyclopentyl-2-(3,4-dichlorophenyl)-N-(5-methyl-isoxazol-3-yl)-propionamide] | 84 to 86 |
| O=C(Nc1cccnn1)C(CC1CCCC1)c1ccc(Cl)c(Cl)c1 (stereo not drawn) [Example 58, 3-Cyclopentyl-2-(3,4-dichlorophenyl)-N-pyridazin-3-yl-propionamide] | 70 to 71 |
| O=C(Nc1ncccn1)C(CC1CCCC1)c1ccc(Cl)c(Cl)c1 (stereo not drawn) [Example 59, 3-Cyclopentyl-2-(3,4-dichlorophenyl)-N-pyrimidin-2-yl-propionamide] | 103 to 105 |
| CCOC(=O)Cc1csc(NC(=O)C(CC2CCCC2)c2ccc(S(=O)(=O)C(F)(F)F)cc2)n1 (stereo not drawn) [Example 62, {2-[3-Cyclopentyl-2-(4-trifluoromethanesulfonyl-phenyl)-propionylamino]-thiazol-4-yl}-acetic acid ethyl ester] | 48 to 51 |
| O=C(Nc1ccc(Br)cn1)C(CC1CCCC1)c1ccc(S(=O)(=O)C(F)(F)F)cc1 (stereo not drawn) [Example 63, N-(5-Bromo-pyridin-2-yl)-3-cyclopentyl-2-(4-trifluoromethanesulfonyl-phenyl)-propionamide] | 130 to 132 |
| CS(=O)(=O)c1ccc(C(CC2CCCC2)C(=O)Nc2ccc(Br)cn2)cc1[N+](=O)[O-] (stereo not drawn) [Example 66, N-(5-Bromo-pyridin-2-yl)-3-cyclopentyl-2-(4-methanesulfonyl-3-nitro-phenyl)-propionamide] | 80 to 83 |

Next, values leading:

| melting point [°C] | Structure (SMILES) |
| --- | --- |
| 201 to 202 | O=C(Nc1nccs1)C(CC1CCCC1)c1ccc(Br)cc1 (stereo not drawn) [Example 2, 2-(4-Bromo-phenyl)-3-cyclopentyl-N-thiazol-2-yl-propionamide] |
| 102 to 107 | Nc1ccc(C(CC2CCCC2)C(=O)Nc2nccs2)cc1 (stereo not drawn) [Example 4, 2-(4-Amino-phenyl)-3-cyclopentyl-N-thiazol-2-yl-propionamide] |
| 158 to 160 | Nc1cccc(C(CC2CCCC2)C(=O)Nc2nccs2)c1 (stereo not drawn) [Example 5, 2-(3-Amino-phenyl)-3-cyclopentyl-N-thiazol-2-yl-propionamide] |
| 138.8 to 141.2 | O=C(Nc1nccs1)C(CC1CCCC1)c1cccc(Cl)c1 (stereo not drawn) [Example 6, 2-(3-Chloro-phenyl)-3-cyclopentyl-N-thiazol-2-yl-propionamide] |
| 210 to 212 | O=C(Nc1nccs1)C(CC1CCCC1)c1ccc(C(F)(F)F)cc1 (stereo not drawn) [Example 8, 3-Cyclopentyl-N-thiazol-2-yl-2-(4-trifluoromethyl-phenyl)-propionamide] |
| 195 to 196 | CSc1ccc(C(CC2CCCC2)C(=O)Nc2nccs2)cc1 (stereo not drawn) [Example 9, 3-Cyclopentyl-2-(4-methylsulfanyl-phenyl)-N-thiazol-2-yl-propionamide] |
| 58 to 60 | O=C(Nc1nccs1)C(CC1CCCC1)c1ccc(SC(F)(F)F)cc1 (stereo not drawn) [Example 10, 3-Cyclopentyl-N-thiazol-2-yl-2-(4-trifluoromethylsulfanyl-phenyl)-propionamide] |
| 121 to 124 | CS(=O)(=O)c1ccc(C(CC2CCCC2)C(=O)Nc2nccs2)cc1[N+](=O)[O-] (stereo not drawn) [Example 14, 3-Cyclopentyl-2-(4-methanesulfonyl-3-nitrophenyl)-N-thiazol-2-yl-propionamide] |
| 269 to 270 | O=C(O)c1cnc(NC(=O)C(CC2CCCC2)c2ccc(Cl)c(Cl)c2)s1 (stereo not drawn) [Example 19, 2-[3-Cyclopentyl-2-(3,4-dichlorophenyl)-propionylamino]-thiazole-5-carboxylic acid] |
| 186 to 187 | O=C(Nc1nccs1)C(CC1CCCC1)c1ccc([N+](=O)[O-])cc1 (stereo not drawn) [Example 22(A), 3-Cyclopentyl-2-(4-nitro-phenyl)-N-thiazol-2-yl-propionamide] |
| 58 to 60 | O=C(Nc1ncc[nH]1)C(CC1CCCC1)c1ccc(Cl)c(Cl)c1 (stereo not drawn) [Example 55, 3-Cyclopentyl-2-(3,4-dichlorophenyl)-N-(1H-imidazol-2-yl)-propionamide] |
| 134 to 136 | O=C(Nc1ncco1)C(CC1CCCC1)c1ccc(Cl)c(Cl)c1 (stereo not drawn) [Example 57, 3-Cyclopentyl-2-(3,4-dichlorophenyl)-N-oxazol-2-yl-propionamide] |
| 166.5 to 169.3 | O=C(Nc1ccncn1)[C@H](CC1CCCC1)c1ccc(Cl)c(Cl)c1 [Example 60, 3-Cyclopentyl-2(R)-(3,4-dichloro-phenyl)-N-pyrimidine-4-yl-propionamide] |
| 170 to 173 | C[S+]([O-])c1ccc(C(CC2CCCC2)C(=O)Nc2nccs2)cc1 (stereo not drawn) [Example 61, 3-Cyclopentyl-2-(4-methanesulfinyl-phenyl)-N-thiazol-2-yl-propionamide] |
| 68 to 72 | O=C(Nc1nccs1)C(CC1CCCC1)c1ccc(Cl)c([N+](=O)[O-])c1 (stereo not drawn) [Example 64, 2-(4-Chloro-3-nitro-phenyl)-3-cyclopentyl-N-thiazol-2-yl-propionamide] |
| 124 to 126 | CS(=O)(=O)c1ccc(C(CC2CCCC2)C(=O)Nc2nccs2)cc1NO (stereo not drawn) [Example 67, 3-Cyclopentyl-2-(3-hydroxyamino-4-methanesulfonyl-phenyl)-N-thiazol-2-yl-propionamide] |
| 207 to 209 | CS(=O)(=O)c1ccc(C(CC2CCCC2)C(=O)Nc2nccs2)cc1N (stereo not drawn) [Example 68, 2-(3-Amino-4-methanesulfonyl-phenyl)-3-cyclopentyl-N-thiazol-2-yl-propionamide] |
